In patent publication US11161825B2, “4-oxo-2,3,4,5-tetrahydro-1H-1,5-benzodiazepine-7-carboxamides” (Bayer Aktiengesellschaft, priority 2017, dated 2021):

Tests used:
SMYD3 = target: T1, SMYD3 (Homo sapiens, UniProt Q9H7B4); experiment: SMYD3 Scintillation Proximity Assay (SPA), methylation of MAP3K2 Peptide; format: biochemical; details: SMYD3 full length enzyme 10 nM, 3H-SAM 125 nM, MAP3K2 Peptide 1 μM, 120 min at 22° C.
T1 construct: The SMYD3 full length enzyme was produced in-house by expression (with an N-terminal 6×His tag) in E. coli; 6xHis (N); made in house; host or cells: E. coli
T1 sequence (Q9H7B4 1-428): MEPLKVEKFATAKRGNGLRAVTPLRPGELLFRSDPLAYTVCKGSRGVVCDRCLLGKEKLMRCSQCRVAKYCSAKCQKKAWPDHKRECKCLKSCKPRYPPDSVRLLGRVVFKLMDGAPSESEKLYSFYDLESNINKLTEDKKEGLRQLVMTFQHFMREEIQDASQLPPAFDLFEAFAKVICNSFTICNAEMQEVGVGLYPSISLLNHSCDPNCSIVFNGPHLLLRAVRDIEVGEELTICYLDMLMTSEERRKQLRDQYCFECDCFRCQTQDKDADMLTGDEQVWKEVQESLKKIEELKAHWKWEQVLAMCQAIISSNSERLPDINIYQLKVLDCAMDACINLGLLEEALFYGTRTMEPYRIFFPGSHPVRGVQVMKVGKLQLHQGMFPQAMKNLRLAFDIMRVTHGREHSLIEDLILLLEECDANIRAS
Method: SMYD3 Scintillation Proximity Assay (SPA)
The SMYD3 full length enzyme was produced in-house by expression (with an N-terminal 6×His tag) in E. coli and purification by affinity chromatography on a Ni-NTA Sepharose column followed by a size exclusion chromatography step on a Superdex 200 16/60 column (GE Healthcare).
To this end, 100-fold concentrated compound solutions (in DMSO) were previously prepared by serial dilution (1:3.4) of 2 mM stocks in a clear low volume 384-well source microtiter plate (Greiner Bio-One), from which 100 nl of compounds were transferred into a white low volume test microtiter plate from the same supplier. […] The resulting mixture (5 μl final volume) was shortly centrifuged (2 min., 1500 rpm) and incubated at 22° C. during 120 min. […] Plates containing the stopped reaction were sealed with transparent adhesive foil (Perkin Elmer), centrifuged (2 min., 1500 rpm), and further incubated overnight at 4° C. in order to allow the SPA signals to develop. Subsequently, the amount of product was evaluated by measuring the energy transfer from the […] emitted by the 3H-labeled substrate to the scintillator co-polymerized in the bead's matrix, using a TopCount NXT scintillation counter (Packard) with the standard instrument settings for this purpose. The resulting scintillation counts were taken as indicator for the amount of methylated peptide per well. […] IC50 values were calculated by fitting the normalized inhibition data to a 4-parameter logistic equation using the XLFit analysis software (IDBS).

[1] = target: T2, untagged full length SMYD3 (Homo sapiens, UniProt Q9H7B4); experiment: Thermal Shift Assay; format: binding; details: protein 1.5-2.0 μM, 5× SYPRO Orange, scans 25° C. to 80° C.; control 4% DMSO
T2 construct: As protein untagged full length SMYD3 was used
T2 sequence (Q9H7B4 1-428): T1 sequence (Q9H7B4 1-428)
Method: Thermal Shift Assay Thermal melting experiments were performed with a ViiA™ Real-Time PCR machine (Thermo Fisher Scientific) in 384-well microliter plate with a final volume of 5 μL. Melting curves were obtained at a protein concentration of 1.5-2.0 μM and 5× SYPRO Orange (Invitrogen) using buffer containing 20 mM Tris pH7.0; 150 mM NaCl; 1.0 mM DTT. As protein untagged full length SMYD3 was used. […] As control 4% DMSO was used. Scans were measured from 25° C. to 80° C. at a scanning rate of 0.1° C./sec. All TSA data were analyzed by using Genedata Assay Analyzer.

SMILES | IC50 (SMYD3) [µM] | Thermal shift assay (° C.) [1] [°C]
Cc1nocc1C(=O)N1c2ccc(C(=O)NCCC3CCC3)cc2NC(=O)C(C)C1C (single isomer, unassigned) [Example 13, N-(2-cyclobutylethyl)-2,3-dimethyl-1-[(3-methyl-1,2-oxazol-4-yl)carbonyl]-4-oxo-2,3,4,5-tetrahydro-1H-1,5-benzodiazepine-7-carboxamide] | 4.62 | 3.71
Cc1nocc1C(=O)N1c2ccc(C(=O)NCCC3CCC3)cc2NC(=O)C(C)C1C (single isomer, unassigned) [Example 14, N-(2-cyclobutylethyl)-2,3-dimethyl-1-[(3-methyl-1,2-oxazol-4-yl)carbonyl]-4-oxo-2,3,4,5-tetrahydro-1H-1,5-benzodiazepine-7-carboxamide] | > 20 | 1.15
Cc1nocc1C(=O)N1c2ccc(C(=O)NCCC3CCC3)cc2NC(=O)C(C)C1C (single isomer, unassigned) [Example 15, N-(2-cyclobutylethyl)-2,3-dimethyl-1-[(3-methyl-1,2-oxazol-4-yl)carbonyl]-4-oxo-2,3,4,5-tetrahydro-1H-1,5-benzodiazepine-7-carboxamide] | ≥ 20 | 1.27
Cc1nocc1C(=O)N1c2ccc(C(=O)NCCC3CCC3)cc2NC(=O)C(C)C1C (single isomer, unassigned) [Example 16, N-(2-cyclobutylethyl)-2,3-dimethyl-1-[(3-methyl-1,2-oxazol-4-yl)carbonyl]-4-oxo-2,3,4,5-tetrahydro-1H-1,5-benzodiazepine-7-carboxamide] | 3.38 | 3.51
CC1C(=O)Nc2cc(C(=O)NCCC3CCC3)ccc2N(C(=O)N2CCC(N)CC2)C1C (single isomer, unassigned) [Example 21, 1-[(4-aminopiperidin-1-yl)carbonyl]-N-(2-cyclobutylethyl)-2,3-dimethyl-4-oxo-2,3,4,5-tetrahydro-1H-1,5-benzodiazepine-7-carboxamide] | 0.0542 | 9.35
CC1C(=O)Nc2cc(C(=O)NCCC3CCC3)ccc2N(C(=O)N2CCC(N)CC2)C1C (single isomer, unassigned) [Example 22, 1-[(4-aminopiperidin-1-yl)carbonyl]-N-(2-cyclobutylethyl)-2,3-dimethyl-4-oxo-2,3,4,5-tetrahydro-1H-1,5-benzodiazepine-7-carboxamide] | 0.0223 | 9.50
C[C@H]1CC(=O)Nc2cc(C(=O)NCCC3CC3)ccc2N1C(=O)N1CC2CC2C1 (stereo partly drawn) [Example 23, (2S)-1-(3-azabicyclo[3.1.0]hex-3-ylcarbonyl)-N-(2-cyclopropylethyl)-2-methyl-4-oxo-2,3,4,5-tetrahydro-1H-1,5-benzodiazepine-7-carboxamide] | 0.0589 | 9.88
C[C@H]1CC(=O)Nc2cc(C(=O)NCCC3CC3)ccc2N1C(=O)N1CCC(F)(F)C1 [Example 24, (2S)—N-(2-cyclopropylethyl)-1-[(3,3-difluoropyrrolidin-1-yl)carbonyl]-2-methyl-4-oxo-2,3,4,5-tetrahydro-1H-1,5-benzodiazepine-7-carboxamide] | 0.706 | 7.35
C[C@H]1CC(=O)Nc2cc(C(=O)NCCC3CC3)ccc2N1C(=O)N1CCC(F)(F)CC1 [Example 25, (2S)—N-(2-cyclopropylethyl)-1-[(4,4-difluoropiperidin-1-yl)carbonyl]-2-methyl-4-oxo-2,3,4,5-tetrahydro-1H-1,5-benzodiazepine-7-carboxamide] | 2.3 | 6.12
C[C@H]1CC(=O)Nc2cc(C(=O)NCCC3CC3)ccc2N1C(=O)N1CCN(CCO)CC1 [Example 26, (2S)—N-(2-cyclopropylethyl)-1-{[4-(2-hydroxyethyl)piperazin-1-yl]carbonyl}-2-methyl-4-oxo-2,3,4,5-tetrahydro-1H-1,5-benzodiazepine-7-carboxamide] | 1.26 | 6.08
CCN1CCN(C(=O)N2c3ccc(C(=O)NCCC4CC4)cc3NC(=O)C[C@@H]2C)CC1 [Example 27, (2S)—N-(2-cyclopropylethyl)-1-[(4-ethylpiperazin-1-yl)carbonyl]-2-methyl-4-oxo-2,3,4,5-tetrahydro-1H-1,5-benzodiazepine-7-carboxamide] | 0.52 | 8.77
CCN1CCC(N(C)C(=O)N2c3ccc(C(=O)NCCC4CC4)cc3NC(=O)C[C@@H]2C)CC1 [Example 28, (2S)—N^7-(2-cyclopropylethyl)-N^1-(1-ethylpiperidin-4-yl)-N^1,2-dimethyl-4-oxo-2,3,4,5-tetrahydro-1H-1,5-benzodiazepine-1,7-dicarboxamide] | 0.13 | 9.94
C[C@H]1CC(=O)Nc2cc(C(=O)NCCC3CC3)ccc2N1C(=O)N1CCC(NCC(F)(F)F)CC1 [Example 29, (2S)—N-(2-cyclopropylethyl)-2-methyl-4-oxo-1-({4-[(2,2,2-trifluoroethyl)amino]piperidin-1-yl}carbonyl)-2,3,4,5-tetrahydro-1H-1,5-benzodiazepine-7-carboxamide] | 0.679 | 5.51
C[C@H]1CC(=O)Nc2cc(C(=O)NCCC3CC3)ccc2N1C(=O)N1CCN(CC(F)(F)F)CC1 [Example 30, (2S)—N-(2-cyclopropylethyl)-2-methyl-4-oxo-1-{[4-(2,2,2-trifluoroethyl)piperazin-1-yl]carbonyl}-2,3,4,5-tetrahydro-1H-1,5-benzodiazepine-7-carboxamide] | 0.787 | 5.69
C[C@H]1CC(=O)Nc2cc(C(=O)NCCC3CC3)ccc2N1C(=O)N(C)C1CCN(CC(F)(F)F)CC1 [Example 31, (2S)—N^7-(2-cyclopropylethyl)-N^1,2-dimethyl-4-oxo-N^1-[1-(2,2,2-trifluoroethyl)piperidin-4-yl]-2,3,4,5-tetrahydro-1H-1,5-benzodiazepine-1,7-dicarboxamide] | 2.52 | 2.79
C[C@H]1CC(=O)Nc2cc(C(=O)NCCC3CC3)ccc2N1C(=O)N1CCCNCC1 [Example 33, (2S)—N-(2-cyclopropylethyl)-1-(1,4-diazepan-1-ylcarbonyl)-2-methyl-4-oxo-2,3,4,5-tetrahydro-1H-1,5-benzodiazepine-7-carboxamide] | 0.046 | 10.17
C[C@H]1CC(=O)Nc2cc(C(=O)NCCC3CC3)ccc2N1C(=O)N1CC[C@H](N)C1.Cl [Example 37, (2S)-1-{[(3S)-3-aminopyrrolidin-1-yl]carbonyl}-N-(2-cyclopropylethyl)-2-methyl-4-oxo-2,3,4,5-tetrahydro-1H-1,5-benzodiazepine-7-carboxamide hydrochloride (1:1)] | 0.215 | 8.66
C[C@H]1CC(=O)Nc2cc(C(=O)NCCC3CC3)ccc2N1C(=O)N1CC[C@@H](N)C1.Cl [Example 39, (2S)-1-{[(3R)-3-aminopyrrolidin-1-yl]carbonyl}-N-(2-cyclopropylethyl)-2-methyl-4-oxo-2,3,4,5-tetrahydro-1H-1,5-benzodiazepine-7-carboxamide hydrochloride (1:1)] | 0.584 | 7.25
